What was measured:
[1] = Kinetics of NO decomposition from RSNOs in aqueous medium (UV-Vis absorbance at 545 nm); type: physicochemical; details: for NO decomposition rate (order of decay slopes): 0.1 N HCl, 22° C., similar initial solution concentrations, FIG. 5
Description: In this invention, GSHEE and phytochelatin are being used for the first time as NO donors. […] Their stability in aqueous medium was explored using the UV-Vis Spectrophotometer. Solutions of all RSNOs for this stability study were synthesized according to Example 1. Their decomposition kinetics in these solutions at room temperature was obtained from the time dependent absorbance changes at 545 nm in time intervals of 10 min.
A good linearity is obtained for all three curves, from the decay slopes, it can be seen that NO decomposition rate decreases in the order of GSNO>S-Nitroso-GSHEE>S-nitroso-PC5.

[2] = NO endogenously synthesized by vascular endothelial cells; cited from earlier work

| Structure (SMILES) | NO decomposition rate (order of decay slopes) [1] | NO dissociation from GSNO ([1]; acidic and neutral medium, room condition (22° C.), FIG. 1) | biological half life [2] [sec] |
| --- | --- | --- | --- |
| N[C@@H](CCC(=O)N[C@@H](CSN=O)C(=O)NCC(=O)O)C(=O)O [GSNO, S-nitrosoglutathione] | GSNO>S-Nitroso-GSHEE>S-nitroso-PC5 | continuously dissociates |  |
| [N]=O [NO, nitric oxide] |  |  | ≤ 5 |
| CCOC(=O)CNC(=O)C(CSN=O)NC(=O)CCC(N)C(=O)O (stereo not shown) [S-Nitroso-GSHEE] | GSNO>S-Nitroso-GSHEE>S-nitroso-PC5 |  |  |

From patent US8992945B2, “Supramacromolecular polymer complexes providing controlled nitric oxide release for healing wounds” (University of Toronto, priority 2007, dated 2015)
